Laboratory results from paper PMC7108291 (Spectrochimica Acta. Part A, Molecular and Biomolecular …, 2009).

How the values were obtained:
Test in all cases: tryptophan fluorescence quenching titration at […] °C
Assay type in all cases: binding
[1] = target: Taq polymerase (Thermus aquaticus, UniProt P19821)
[2] = target: T1, RNase A (Bos taurus, UniProt P61823)
T1 sequence (P61823 27-150): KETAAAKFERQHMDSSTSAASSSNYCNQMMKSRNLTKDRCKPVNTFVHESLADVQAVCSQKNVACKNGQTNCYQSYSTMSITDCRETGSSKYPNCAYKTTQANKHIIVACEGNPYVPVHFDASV

[3] = target: DNase I (Bos taurus, UniProt P00639)
Chain of DNase I (P00639 23-282): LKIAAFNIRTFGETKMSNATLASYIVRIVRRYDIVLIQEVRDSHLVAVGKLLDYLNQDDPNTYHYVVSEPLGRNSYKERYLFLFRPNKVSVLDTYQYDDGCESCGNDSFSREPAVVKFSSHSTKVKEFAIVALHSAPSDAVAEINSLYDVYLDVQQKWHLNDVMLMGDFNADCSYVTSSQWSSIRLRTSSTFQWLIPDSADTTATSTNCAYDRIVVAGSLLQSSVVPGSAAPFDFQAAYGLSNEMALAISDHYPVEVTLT

Chain of Taq polymerase (P19821 whole entry): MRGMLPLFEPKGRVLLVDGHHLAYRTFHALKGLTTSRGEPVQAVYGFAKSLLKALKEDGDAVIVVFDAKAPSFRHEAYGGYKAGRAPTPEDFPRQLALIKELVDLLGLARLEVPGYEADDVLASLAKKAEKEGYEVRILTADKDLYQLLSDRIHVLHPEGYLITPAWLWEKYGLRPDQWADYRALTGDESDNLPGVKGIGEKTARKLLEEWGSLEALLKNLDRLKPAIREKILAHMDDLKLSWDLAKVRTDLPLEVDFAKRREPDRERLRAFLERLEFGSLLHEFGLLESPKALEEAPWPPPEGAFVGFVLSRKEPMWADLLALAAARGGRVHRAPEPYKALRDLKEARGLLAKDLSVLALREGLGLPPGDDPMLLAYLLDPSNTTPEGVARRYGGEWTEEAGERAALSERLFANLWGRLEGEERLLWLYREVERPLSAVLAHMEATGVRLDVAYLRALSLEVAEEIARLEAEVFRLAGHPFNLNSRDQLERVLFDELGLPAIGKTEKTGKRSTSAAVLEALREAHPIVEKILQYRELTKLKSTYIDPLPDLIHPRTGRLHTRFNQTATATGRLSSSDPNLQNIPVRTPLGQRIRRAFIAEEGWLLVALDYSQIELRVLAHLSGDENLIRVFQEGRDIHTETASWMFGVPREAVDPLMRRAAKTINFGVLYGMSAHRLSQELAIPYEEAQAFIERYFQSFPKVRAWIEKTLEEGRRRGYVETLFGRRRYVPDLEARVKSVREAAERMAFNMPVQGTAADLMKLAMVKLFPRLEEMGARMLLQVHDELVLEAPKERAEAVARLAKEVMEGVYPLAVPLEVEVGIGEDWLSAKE

Kd [1]: 82 µM | Kd [2]: 2.33 µM | Kd [3]: 9.02 µM
Compound: O=C(O)C1=CC(=C(c2ccc(O)c(C(=O)O)c2)c2ccc(O)c(C(=O)O)c2)C=CC1=O [ATA, aurintricarboxylic acid]
